For one data set, the system named is Bacillus subtilis. Briefly: In vitro antimicrobial screening, tube dilution method. The class given is cell-based. As to conditions: Bacillus subtilis; B. substilis, Gram +ve; nutrient broth, 37 ± 1 °C, 24 h; read-out: Minimum inhibitory concentration. How it is done:
(§1) The in vitro antimicrobial screening of the synthesized 1,2,4-triazole derivatives (T1–T20) in μM was determined against Gram-positive Bacillus subtilis, […], Gram-negative Escherichia coli bacterium and fungal strains Candida albicans and Aspergillus niger by tube dilution method using ciprofloxacin, amoxycillin (antibacterial) and fluconazole (antifungal) as reference drugs. DMSO was used to dissolve the reference and sample derivatives (T1–T20). Dilutions were prepared in nutrient broth (I.P.) for bacterial (incubated at 37 ± 1 °C for 24 h) and Sabouraud dextrose broth (I.P.) for fungal species (37 ± 1 °C for 48 h for C. albicans) and (25 ± 1 °C for 7 days for A. niger) (Table 3, Figs. 4 and 5).

For the next data set, the system named is Escherichia coli. The description is as above. The class given is cell-based. As to conditions: E. coli, Gram −ve, nutrient broth, 37 ± 1 °C, 24 h, read-out: Minimum inhibitory concentration. How it is done:
as §1

Another data set has as its system Pseudomonas aeruginosa. Described as above. The class given is cell-based. The note with it: P. aeruginosa, Gram −ve, nutrient broth, 37 ± 1 °C, 24 h, read-out: Minimum inhibitory concentration. How it is done: as §1
For a further data set, the system named is Aspergillus niger. Nature of the data set: In vitro antifungal screening, tube dilution method. As to conditions: A. niger, Sabouraud dextrose broth, 25 ± 1 °C, 7 days, read-out: Minimum inhibitory concentration. Format: cell-based. On the procedure: as §1
The test system of a further data set is Candida albicans. The description is as above. Format: cell-based. The note with it: Candida albicans; C. albican; Sabouraud dextrose broth, 37 ± 1 °C, 48 h; read-out: Minimum inhibitory concentration. On the procedure: as §1
The nature of data set [1]: DPPH free radical scavenging activity. The note with it: for IC50: DPPH antioxidant; for % inhibition: DPPH. On the procedure: In the DPPH free radical scavenging activity, compounds (T1–T20) were evaluated for their free radical scavenging activity with ascorbic acid as standard compound. The scavenging effect increased with the increasing concentrations of sample compounds. DPPH is relatively stable nitrogen centered free radical that easily accepts an electron or hydrogen radical to become a stable diamagnetic molecule. DPPH radicals react with suitable reducing agents as a result of which the electrons become paired off forming the corresponding hydrazine. The solution therefore loses colour stoichometrically depending on the number of electrons taken up. […] The sample solutions were incubated for 30 min at room temperature in dark place and after then absorbance was recorded against the blank solution at 517 nm. The relative percent of DPPH scavenging activity was calculated according to the following equation: I%=Acontrol-Asample/Acontrol×100,
where Acontrol is the absorbance of the control, Asample is the absorbance of the test compound.
(The DPPH test is a chemical assay of radical scavenging.)

For the next data set, the target named is Jack Bean Urease (Canavalia ensiformis, UniProt P07374). Briefly: biochemical. On the procedure: Urease inhibitory potential for each synthesisized compound (T1–T20) was evaluated using Jack Bean Urease by Indophenol method (Table 5, Figs. 9, 10, 11). 250 µl of jack bean urease (4U) was mixed with 250 µl of different synthesized test compounds and standard of different concentrations [dissolved in DMSO/H2O mixture (1:1 v/v)]. The mixture was pre-incubated for 1 h at 37 °C in test tubes. 2 ml of 100 mM phosphate buffer (pH 6.8) containing 500 mM urea and 0.002% phenol red as an indicator were added in sample test tubes after pre incubation and again incubated at room temperature. Absorbance of reaction mixture was recorded by ELISA at 570 nm. Ammonium carbonate increased the pH of phosphate buffer from 6.8 to 7.7 which was produced from urea by urease enzyme and the end peak was measured by the colour of phenol red indicator [16].
The percentage inhibition of urease enzyme was calculated by using following formula: I%=Acontrol-Asample/Acontrol×100,
where Acontrol is the absorbance of the control; Asample is the absorbance of the test compound.

For data set [2], the system named is HCT116 (human colon cancer cells). Nature of the data set: Anticancer evaluation, SRB assay. Format: cell-based. As to conditions: Homo sapiens, HCT-116. How it is done: HCT116 (human colon cancer cells) were seeded at 2500 cells/well (96 well plate), allowed to attach overnight, exposed to the respective compounds for 72 h and subjected to SRB assay (570 nm). Data represent mean IC50 of at least triplicates. The compounds were all dissolved in DMSO as stock of 100 mg/ml. […] The highest concentration of each compound tested (100 μg/ml) contained only 0.1% DMSO.
(In SRB staining, fixed cells bind dye roughly in proportion to their protein.)

[3] abbreviates: HCT116, 72 h, SRB, mean of at least triplicates.

Values after ≈ are worked out from the molar mass of the structure shown. Read-outs that look alike come from different tables or passages of the source.

Jack Bean Urease, sequence (P07374 whole entry, looked up): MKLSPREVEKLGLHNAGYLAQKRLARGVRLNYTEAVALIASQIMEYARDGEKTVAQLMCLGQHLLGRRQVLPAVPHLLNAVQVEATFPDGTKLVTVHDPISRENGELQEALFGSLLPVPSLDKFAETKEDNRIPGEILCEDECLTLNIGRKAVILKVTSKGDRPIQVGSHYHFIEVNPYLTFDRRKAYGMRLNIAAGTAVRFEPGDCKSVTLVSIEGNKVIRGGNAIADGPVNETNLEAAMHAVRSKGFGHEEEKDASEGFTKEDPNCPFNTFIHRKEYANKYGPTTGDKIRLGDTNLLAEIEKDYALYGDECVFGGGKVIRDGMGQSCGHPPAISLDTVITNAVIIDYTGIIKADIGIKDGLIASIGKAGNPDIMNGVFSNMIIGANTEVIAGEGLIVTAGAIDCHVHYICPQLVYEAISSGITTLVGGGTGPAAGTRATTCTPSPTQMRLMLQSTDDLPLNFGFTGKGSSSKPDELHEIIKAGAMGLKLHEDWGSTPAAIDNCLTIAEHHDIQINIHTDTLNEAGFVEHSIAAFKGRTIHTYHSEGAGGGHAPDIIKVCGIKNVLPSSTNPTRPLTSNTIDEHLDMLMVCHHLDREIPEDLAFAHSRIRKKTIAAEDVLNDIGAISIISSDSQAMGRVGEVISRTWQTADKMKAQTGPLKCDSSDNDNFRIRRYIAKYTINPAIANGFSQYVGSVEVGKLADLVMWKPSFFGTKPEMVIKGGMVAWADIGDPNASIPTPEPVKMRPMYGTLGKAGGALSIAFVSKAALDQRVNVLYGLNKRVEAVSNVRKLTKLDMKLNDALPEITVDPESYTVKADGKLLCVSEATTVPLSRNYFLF

Turning to `CCCCCCCCCCCCCCCc1nnc(S)n1N=Cc1ccc(OC)c(O)c1` [Compound T6], the melting point – broadly, the temperature, or range, at which the solid turns liquid – lay within 189 to 192 °C. In addition, the MIC in the data set with Bacillus subtilis amounted to 108 µM (≈ 50 µg/mL). The MIC in the data set on Escherichia coli (Escherichia coli) came out at 54.2 µM (≈ 25 µg/mL). Further, the MIC with Pseudomonas aeruginosa (Pseudomonas aeruginosa) was 54.2 µM (≈ 25 µg/mL). For the same molecule, in the data set with Aspergillus niger, the MIC came out at 217.0 µM (≈ 100 µg/mL). Also, the MIC in the data set on Aspergillus niger (Aspergillus niger, 168 h) was determined as 217 µM (≈ 100 µg/mL). The MIC in the data set with Candida albicans is 108 µM (≈ 50 µg/mL). In addition, the IC50 – broadly, the midpoint of a concentration-inhibition curve – in [1] worked out at 45.66 mg/L (≈ 99.1 µM). Also, the % inhibition (in general, how much of the control response was suppressed) in data set [1] (25 µg/ml) amounted to 31.67%. Besides, the “% inhibition” value in [1] (50 µg/ml) came out at 53.67%. Besides, the “% inhibition” value in data set [1] (75 µg/ml) came out at 77.78%. For the same molecule, in [1] (100 µg/ml), the “% inhibition” value came out at 92.67%. Further, on Jack Bean Urease, the IC50 is 102 µM; the inhibition (in general, the percentage by which the read-out fell short of the control) at 25 µg/mL was found to be 38.5%; the inhibition at 50 µg/mL worked out at 50.3%; at 75 µg/mL the inhibition was 65.6%. Also, on Jack Bean Urease, the inhibition at 100 µg/mL was 80.9%. In addition, 112 µM corresponded to half-maximal inhibition in [2] (setting [3]) (IC50).
With `CCCCCCCCCCCCCCCc1nnc(S)n1N=Cc1ccccc1O` [Compound T7], the melting point is 181 to 184 °C. The MIC in the data set on Bacillus subtilis was 116 µM (≈ 50 µg/mL). Also, in the data set on Escherichia coli (Escherichia coli), the MIC is 116 µM (≈ 50 µg/mL). The MIC with Pseudomonas aeruginosa is recorded as 29.0 µM (≈ 12.5 µg/mL). Further, the MIC with Pseudomonas aeruginosa (Pseudomonas aeruginosa) worked out at 29 µM (≈ 12.5 µg/mL). Also, the MIC in the data set on Aspergillus niger (Aspergillus niger, 168 h) is 232 µM (≈ 100 µg/mL). Besides, the MIC with Candida albicans amounted to 232 µM (≈ 100 µg/mL). The same molecule yielded an IC50 in [1] of 38.54 mg/L (≈ 89.5 µM). For the same molecule, the “% inhibition” value in data set [1] (25 µg/ml) is recorded as 46.75%. The “% inhibition” value in data set [1] (50 µg/ml) turned out to be 52.56%. Besides, the “% inhibition” value in data set [1] (75 µg/ml) worked out at 60.56%. In data set [1] (100 µg/ml), the “% inhibition” value worked out at 70.41%. On Jack Bean Urease, this molecule had an IC50 of 121 µM, an inhibition at 25 µg/mL of 24%, an inhibition at 50 µg/mL of 46.9% and an inhibition at 75 µg/mL of 76.1%. In addition, at Jack Bean Urease, testing at 100 µg/mL gave an inhibition of 91.9%. Also, in [2] (setting [3]), the midpoint of inhibition, the IC50, lay at 3.25 µM. The molecule also yielded an IC50 in data set [2] (HCT116, value given in dose-response figure) of 1.4 mg/L.
`CCCCCCCCCCCCCCCc1nnc(S)n1N=Cc1ccc(O)cc1` [Compound T8] gave a melting point of 192 to 195 °C. Also, in the data set with Bacillus subtilis, the MIC is 116 µM (≈ 50 µg/mL). Also, in the data set on Escherichia coli, the MIC is given as 58.0 µM (≈ 25 µg/mL). In addition, the MIC in the data set on Escherichia coli (Escherichia coli) worked out at 58 µM (≈ 25 µg/mL). In addition, in the data set on Pseudomonas aeruginosa, the MIC is on record as 58.0 µM (≈ 25 µg/mL). In the data set with Pseudomonas aeruginosa (Pseudomonas aeruginosa), the MIC was found to be 58 µM (≈ 25 µg/mL). In the data set with Aspergillus niger (Aspergillus niger, 168 h), the MIC came to 232 µM (≈ 100 µg/mL). The MIC in the data set on Candida albicans is 116 µM (≈ 50 µg/mL). Moreover, in data set [1], the IC50 stood at 36.12 mg/L (≈ 83.9 µM). The “% inhibition” value in data set [1] (25 µg/ml) was found to be 43.91%. Further, the “% inhibition” value in [1] (50 µg/ml) amounted to 58.67%. In addition, the “% inhibition” value in [1] (75 µg/ml) came out at 67.54%. In data set [1] (100 µg/ml), the “% inhibition” value is given as 82.57%. For the same molecule, on Jack Bean Urease, half-maximal inhibition (IC50) required 131 µM, the inhibition at 25 µg/mL is 22.4%, 50 µg/mL produced 39.6% inhibition and the inhibition at 75 µg/mL worked out at 68.6%. The inhibition at 100 µg/mL against Jack Bean Urease is 92.7%. The IC50 in data set [2] (setting [3]) is greater than 232 µM.
Molecule `CCCCCCCCCCCCCCCc1nnc(S)n1N=Cc1ccc(N(C)C)cc1` [Compound T9] gave a melting point of 198 to 201 °C. The MIC with Bacillus subtilis is 54.6 µM (≈ 25 µg/mL). Besides, the MIC with Escherichia coli (Escherichia coli) was 54.6 µM (≈ 25 µg/mL). The MIC in the data set with Pseudomonas aeruginosa (Pseudomonas aeruginosa) was 27.3 µM (≈ 12.5 µg/mL). Besides, the MIC in the data set on Aspergillus niger (Aspergillus niger, 168 h) is 218 µM (≈ 100 µg/mL). For the same molecule, in the data set with Candida albicans, the MIC was 109 µM (≈ 50 µg/mL). In addition, the half-inhibitory concentration (IC50) in [1] stood at 35.42 mg/L (≈ 77.4 µM). For the same molecule, the “% inhibition” value in data set [1] (25 µg/ml) came to 40.56%. Moreover, the “% inhibition” value in data set [1] (50 µg/ml) worked out at 60.67%. Moreover, the “% inhibition” value in data set [1] (75 µg/ml) is on record as 83.61%. The “% inhibition” value in data set [1] (100 µg/ml) is 92.16%. On Jack Bean Urease, this molecule displayed an inhibition at 25 µg/mL of 33.5%, an inhibition at 50 µg/mL of 53.7%, an inhibition at 75 µg/mL of 70.5% and an inhibition at 100 µg/mL of 92.7%. The molecule further yielded an IC50 in data set [2] (setting [3]) greater than 218 µM.

The values are drawn from publication PMC7818921, “Synthesis and biological evaluation of heterocyclic 1,2,4-triazole scaffolds as promising pharmacological agents” (BMC Chemistry, 2021).
